Measurements as given in patent US11813353B2, “Pharmaceutical compositions for the nasal administration of a cobalamin compound” (INNOTESTO BV, priority 2020, dated 2023).
Where two headings read alike, the source gives them in different places.

Key:
[1] = Nasal absorption of hydroxocobalamin nasal spray in healthy volunteers; format: in vivo, human
Protocol: Healthy volunteers received a dose of 500 μg hydroxocobalamin in 50 μl nasal spray containing as main constituents hydroxocobalamin, mannitol 10% w/v, propylene glycol 10% v/v and water (total dose 500 μg hydroxocobalamin HCl) using an Aptar VP7 spray pump. The following increases of hydroxocobalamin blood levels (increase from C t=0 to Cmax after 30 minutes) were measured: […]

[2] = 6 Crohn's disease patients, 1500 μg nasal, cited from earlier work
[3] = geriatric patients, cited from earlier work
nasal epithelial cells = conditions: 1% concentration; cited from earlier work
[4] = about 0.1% (w/w); versus benzalkonium chloride; cited from earlier work
[5] = healthy volunteers, 500 μg nasal spray

C/C1=C2/[N-][C@H]([C@H](CC(N)=O)[C@@]2(C)CCC(=O)NC[C@@H](C)OP(=O)([O-])O[C@H]2[C@@H](O)[C@@H](n3cnc4cc(C)c(C)cc43)O[C@@H]2CO)[C@]2(C)N=C(/C(C)=C3N=C(/C=C4N=C1[C@@H](CCC(N)=O)C\4(C)C)[C@@H](CCC(N)=O)[C@]\3(C)CC(N)=O)[C@@H](CCC(N)=O)[C@]2(C)CC(N)=O.[Co+3].[OH-] [hydroxocobalamin]
irritation in the nose [1, 5]: None of the volunteers | presence of red crustae in the nose afterwards [1, 5]: None of the volunteers | CV (coefficient of variation) of mean increase ([1]; healthy volunteers, 500 μg nasal spray, mannitol 10% w/v, propylene glycol 10% v/v): 23% | vitamin B12 Cmax levels ([1]; healthy volunteers, 500 μg nasal spray, exceeded in none of the volunteers): ≤ 1.5 ng/mL | Mean increase per 500 μg Hydroxocobalamin ([1]; healthy volunteers, nasal spray, mannitol 10% w/v, propylene glycol 10% v/v, water, SD=127 pg/ml): 549 pg/mL | increase of hydroxocobalamin blood levels, alternative composition ([1]; nasal spray with mannitol 5% w/v, propylene glycol 15% v/v and water): Comparable results | mean increase in vitamin B12 level ([2]; three days, SD 645 pg/ml): 1520 pg/mL | CV (coefficient of variation) of mean increase [2]: 42.5% | Cmax levels (±SD) after nasal administration ([3]; dose of 750 μg): 2.7 ± 1.2 ng/mL | Cmax levels (±SD) after nasal administration ([3]; dose): 4.7 ± 3.4 ng/mL

OC[C@@H](O)[C@@H](O)[C@H](O)[C@H](O)CO [mannitol]
cellular damage (nasal epithelial cells): no cellular damage

C/C=C/C=C/C(=O)[O-].[K+] [potassium sorbate]
safety as a preservative in nasal products [4]: much more safe than benzalkonium chloride
